We go through 45 compounds from ChEMBL document CHEMBL1131396, “Structure-activity studies related to ABT-594, a potent nonopioid analgesic agent: effect of pyridine and azetidine ring substitutions on nicotinic acetylcholine receptor binding affinity and analgesic activity in mice” (Bioorg Med Chem Lett, 1998).

The species entered for one assay is Mus musculus. In words: Analgesic activity in a mouse hot plate assay. The format is functional. On the technique in general: Hot-plate and tail-flick tests time the reaction to a heat stimulus.
Assay [1] deals with Neuronal acetylcholine receptor; alpha4/beta2 (Rattus norvegicus, UniProt P09483+P12390). Kind of assay: Binding affinity towards Nicotinic acetylcholine receptor alpha4-beta2 in rat brain using [3H]-cytisine as radioligand. The format is tissue-based.
Assay [2] deals with IMR-32. Kind of assay: Maximal response of compound at 1 uM concentration in an in vitro [86Rb+] release assay using IMR-32 cells. The format is functional, Homo sapiens.
Assay [3] relates to IMR-32. In words: Maximal response of compound was determined in an in vitro [86Rb+] release assay using IMR-32 cells. The format is functional, Homo sapiens.
Assay [4] has as its system IMR-32. Kind of assay: Maximal response of compound at concentration 3 uM concentration in an in vitro [86Rb+] release assay using IMR-32 cells. Type of assay: functional, Homo sapiens.
In assay [5] the test system is IMR-32. In words: Maximal response of compound at 10 uM concentration in an in vitro [86Rb+] release assay using IMR-32 cells. The format is functional, Homo sapiens.

The Ki is a dissociation constant, usually derived from enzyme kinetics or from competition with a known ligand. A high value points to weaker binding.

Sequence of Neuronal acetylcholine receptor; alpha4/beta2 (P09483 whole entry): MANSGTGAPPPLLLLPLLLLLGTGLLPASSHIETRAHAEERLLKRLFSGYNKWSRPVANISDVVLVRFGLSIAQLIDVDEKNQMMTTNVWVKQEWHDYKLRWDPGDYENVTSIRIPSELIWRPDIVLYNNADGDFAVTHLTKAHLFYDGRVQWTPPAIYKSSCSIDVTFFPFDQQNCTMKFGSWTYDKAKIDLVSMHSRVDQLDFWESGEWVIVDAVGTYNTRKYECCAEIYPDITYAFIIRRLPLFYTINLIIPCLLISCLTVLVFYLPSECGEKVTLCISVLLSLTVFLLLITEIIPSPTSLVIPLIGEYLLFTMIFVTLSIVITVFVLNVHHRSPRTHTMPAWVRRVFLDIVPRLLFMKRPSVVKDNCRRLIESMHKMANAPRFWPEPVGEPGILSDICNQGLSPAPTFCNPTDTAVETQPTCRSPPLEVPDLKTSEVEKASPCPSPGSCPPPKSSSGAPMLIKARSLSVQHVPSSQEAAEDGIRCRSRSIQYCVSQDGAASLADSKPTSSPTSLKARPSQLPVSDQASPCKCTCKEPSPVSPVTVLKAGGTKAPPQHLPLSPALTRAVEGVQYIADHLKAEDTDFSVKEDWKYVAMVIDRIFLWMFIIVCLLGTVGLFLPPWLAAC
Sequence of Neuronal acetylcholine receptor; alpha4/beta2 (P12390 whole entry): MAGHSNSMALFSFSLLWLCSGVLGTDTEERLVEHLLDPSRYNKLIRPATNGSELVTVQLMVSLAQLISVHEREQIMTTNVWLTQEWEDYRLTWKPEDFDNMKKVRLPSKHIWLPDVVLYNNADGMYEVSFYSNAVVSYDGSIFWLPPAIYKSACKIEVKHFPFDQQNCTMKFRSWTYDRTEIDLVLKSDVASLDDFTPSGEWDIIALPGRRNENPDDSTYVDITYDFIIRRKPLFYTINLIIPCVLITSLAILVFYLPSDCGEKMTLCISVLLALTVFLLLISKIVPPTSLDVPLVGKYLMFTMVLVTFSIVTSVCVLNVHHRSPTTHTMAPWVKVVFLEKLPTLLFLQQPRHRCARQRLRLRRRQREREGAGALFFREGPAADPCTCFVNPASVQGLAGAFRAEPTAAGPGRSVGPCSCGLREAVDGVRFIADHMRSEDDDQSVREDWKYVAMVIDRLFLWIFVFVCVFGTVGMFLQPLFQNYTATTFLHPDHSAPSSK

Turning to `Fc1ncccc1OC[C@@H]1CCN1`, the MED in the assay filed under Mus musculus was found to be 1.9 µM/kg.

On to `Brc1ccc(OC[C@H]2CCN2)cn1`, for which the MED in the assay listed under Mus musculus worked out at 0.62 µM/kg.

In the assay listed under Mus musculus, `Clc1ncc(OC[C@@H]2CCN2)cc1Br` had an MED of 1.9 µM/kg. Also, the affinity in assay [1], expressed as Ki, was 0.015 nM.

Consider `O=[N+]([O-])c1cncc(OC[C@@H]2CCN2)c1`, for which the MED in the assay filed under Mus musculus came to 62 µM/kg.

In turn, `Fc1ccc(OC[C@@H]2CCN2)cn1` showed an MED in the assay listed under Mus musculus of 6.2 µM/kg. For the same compound, in assay [1], the affinity corresponds to a Ki of 0.057 nM.

`Clc1ccncc1OC[C@H]1CCN1` returned an MED in the assay filed under Mus musculus of more than 6.2 µM/kg. This compound returned a Ki in assay [1] of 12 nM.

In the case of `Fc1ncccc1OC[C@H]1CCN1`, in the assay filed under Mus musculus, the MED is more than 62 µM/kg.

As for `Clc1ncc(OC[C@@H]2CCN2)cc1-c1ccccc1`, the Max response with IMR-32 [2] was 92%. In the assay listed under Mus musculus, the MED was more than 6.2 µM/kg. The compound also displayed a Ki in assay [1] of 0.022 nM.

In turn, `N#Cc1ccc(OC[C@@H]2CCN2)cn1` registered an MED in the assay filed under Mus musculus of 62 µM/kg.

As for `Brc1ccc(OC[C@@H]2CCN2)cn1`, the MED in the assay filed under Mus musculus was more than 6.2 µM/kg. This compound yielded a Ki in assay [1] of 0.021 nM.

For `Clc1ncccc1OC[C@H]1CCN1`, the MED in the assay listed under Mus musculus was found to be 62 µM/kg.

`Clc1ccc(OC[C@@H]2CCN2)cn1` registered a Max response with IMR-32 [3] of 166%. Besides, the MED in the assay filed under Mus musculus was found to be 0.62 µM/kg. Also, in assay [1], the Ki turned out to be 0.04 nM.

In the assay filed under Mus musculus, `Cc1ncccc1OC[C@@H]1CCN1` returned an MED of more than 62 µM/kg. Moreover, the Ki in assay [1] turned out to be 1.36 nM.

Turning to `Fc1ccc(OC[C@H]2CCN2)cn1`, the MED in the assay listed under Mus musculus was 1.9 µM/kg. In assay [1], this compound came in with an inhibition constant (Ki) of 0.066 nM.

Regarding `c1cncc(OC[C@@H]2CCN2)c1`, in the assay on IMR-32 [3], the Max response was found to be 113%. The compound further displayed an MED in the assay listed under Mus musculus of more than 6.2 µM/kg. The compound further gave a Ki in assay [1] of 0.052 nM.

In the assay filed under Mus musculus, `C=Cc1ccc(OC[C@@H]2CCN2)cn1` registered an MED of more than 62 µM/kg. The compound also came in with a Ki in assay [1] of 1.25 nM.

`Clc1ccncc1OC[C@@H]1CCN1` gave an MED in the assay filed under Mus musculus of more than 62 µM/kg. In assay [1], affinity was put at a Ki of 260 nM.

As for `Nc1cncc(OC[C@@H]2CCN2)c1`, the MED in the assay listed under Mus musculus is more than 62 µM/kg. Also, the inhibition constant Ki in assay [1] worked out at 0.082 nM.

In the case of `COc1ccc(OC[C@H]2CCN2)cn1`, the MED in the assay listed under Mus musculus was more than 62 µM/kg.

In the assay filed under Mus musculus, `CC(=O)NCc1cncc(OC[C@@H]2CCN2)c1` had an MED of more than 62 µM/kg. Besides, the affinity in assay [1], expressed as Ki, was 0.54 nM.

Consider `NCc1cncc(OC[C@@H]2CCN2)c1`, for which the MED in the assay listed under Mus musculus is more than 6.2 µM/kg. In assay [1], the affinity, expressed as Ki, was 4.4 nM.

With `Cc1ccc(OC[C@H]2CCN2)cn1`, the MED in the assay listed under Mus musculus was 6.2 µM/kg. This compound came in with a Ki in assay [1] of 0.053 nM.

Consider `N#Cc1cncc(OC[C@@H]2CCN2)c1`, for which the MED in the assay filed under Mus musculus was more than 6.2 µM/kg. In addition, the Ki in assay [1] amounted to 0.025 nM.

Turning to `Clc1ncccc1OC[C@@H]1CCN1`, the MED in the assay listed under Mus musculus came to 62 µM/kg.

In the case of `Cc1nc(Cl)ccc1OC[C@@H]1CCN1`, the MED in the assay filed under Mus musculus is more than 62 µM/kg. In assay [1], this compound came in with an inhibition constant (Ki) of 2.4 nM.

In the assay filed under Mus musculus, `Cc1ccc(OC[C@@H]2CCN2)cn1` came in with an MED of 0.62 µM/kg. Affinity in assay [1] was put at a Ki of 0.057 nM.

In turn, `CCc1ccc(OC[C@@H]2CCN2)cn1` registered an MED in the assay listed under Mus musculus of more than 6.2 µM/kg. Moreover, in assay [1], the Ki is 19 nM.

In the case of `Clc1cncc(OC[C@@H]2CCN2)c1`, in the assay filed under Mus musculus, the MED was more than 6.2 µM/kg. Besides, the affinity in assay [1], expressed as Ki, was 0.042 nM.

As to `Oc1cncc(OC[C@H]2CCN2)c1`, the MED in the assay listed under Mus musculus is more than 62 µM/kg. For the same compound, in assay [1], the Ki was 0.088 nM.

Take `Clc1cncc(OC[C@H]2CCN2)c1`: in the assay listed under Mus musculus, the MED amounted to 62 µM/kg.

Take `c1ccc(-c2ccc(OC[C@@H]3CCN3)cn2)cc1`: the MED in the assay listed under Mus musculus is more than 62 µM/kg. The same compound registered a Ki in assay [1] of 2.3 nM.

In the case of `CC1(C)CN[C@H]1COc1ccc(Cl)nc1`, in assay [1], the Ki worked out at 37 nM.

`c1ccc(-c2cncc(OC[C@@H]3CCN3)c2)cc1` showed a Max response in the assay with IMR-32 [4] of 45%. The MED in the assay listed under Mus musculus was more than 62 µM/kg. The compound also displayed a Ki in assay [1] of 0.046 nM.

For the compound `CCc1cncc(OC[C@@H]2CCN2)c1`, the Max response with IMR-32 [5] is reported as 90%. The compound further displayed an MED in the assay listed under Mus musculus of more than 62 µM/kg. The same compound yielded a Ki in assay [1] of 0.1 nM.

Turning to `Cc1cncc(OC[C@@H]2CCN2)c1`, in the assay listed under Mus musculus, the MED is more than 62 µM/kg. The compound further registered a Ki in assay [1] of 0.047 nM.

In the case of `Fc1cncc(OC[C@@H]2CCN2)c1`, the MED in the assay listed under Mus musculus came to 6.2 µM/kg. This compound also returned a Ki in assay [1] of 0.076 nM.

Turning to `CCOc1cncc(OC[C@@H]2CCN2)c1`, the MED in the assay filed under Mus musculus amounted to 62 µM/kg. The Ki in assay [1] was 0.039 nM.

`FC(F)(F)c1cncc(OC[C@@H]2CCN2)c1`: the MED in the assay filed under Mus musculus was more than 19 µM/kg. The inhibitory constant (Ki) in assay [1] came to 0.49 nM.

In the assay listed under Mus musculus, `Brc1cncc(OC[C@@H]2CCN2)c1` gave an MED of more than 19 µM/kg. The compound also gave an inhibition constant (Ki) in assay [1] of 0.18 nM.

`CCCc1cncc(OC[C@@H]2CCN2)c1` showed an MED in the assay listed under Mus musculus of 62 µM/kg. In addition, in assay [1], the inhibitory constant (Ki) turned out to be 0.039 nM.

The compound `COc1ccc(OC[C@@H]2CCN2)cn1` showed an MED in the assay listed under Mus musculus of more than 62 µM/kg. Moreover, the affinity in assay [1] corresponds to a Ki of 1.3 nM.

In turn, `Cc1cncc(OC[C@H]2CCN2)c1` registered an MED in the assay listed under Mus musculus of 62 µM/kg. The Ki in assay [1] was determined as 0.16 nM.

As to `C[C@@H]1CN[C@H]1COc1ccc(Cl)nc1`, affinity in assay [1] was put at a Ki of 7.6 nM.

Take `Clc1cc(OC[C@@H]2CCN2)cnc1Cl`: the MED in the assay filed under Mus musculus was 0.62 µM/kg. Affinity in assay [1] was put at a Ki of 0.023 nM.

Consider `Clc1ccc(OC[C@H]2CCN2)cn1` [TEBANICLINE], for which the MED in the assay listed under Mus musculus came out at 0.62 µM/kg. This compound had a Ki in assay [1] of 0.04 nM.
